Entries after “also recorded” stand apart in the source; their conditions may differ. Each block holds one compound with its values, some of them ahead of it.
Assays:
Format in all cases: cell-based
Conditions in all cases: HEK293T cells, 5, 10 and 20 μM, 20 h
[1] = target: T1, NRASQ61H interaction with PI3K, CRAF, RALGDS (Homo sapiens, UniProt P01111, Q61H); assay: BRET2 cell assay, NRAS Q61H-effector interaction
T1 construct: expressed in transfected cells; host or cells: HEK293T
Source text: (§1) The BRET ratio corresponds to the light emitted by the GFP2 acceptor constructs (515 nm±30) upon addition of Coelenterazine 400a divided by the light emitted by the RLuc8 donor constructs (410 nm±80). The normalized BRET ratio is the BRET ratio normalized to the DMSO negative and calculated as follows: (BRETcompound/BRETDMSO)×100, where BRETcompound corresponds to the BRET ratio for the compound-treated cells, BRETDMSO to the DMSO-treated cells. Each experiment was repeated at least three times. Statistical analyses were performed using a one-way ANOVA followed by Dunnett's post-tests (*P<0.05, **P<0.01, ***P<0.001, ****P<0.0001). Where error bars are presented, they correspond to mean values±SD of biological repeats (a-c).
(§2) HEK293T cells were transfected 24 hr with plasmids expressing the NRAS Q61H […] and HRAS G12V (B, D) biosensors together with the indicated RBDs of PI3K, CRAF and RALGDS (A, B) or full-length CRAF. […]
(§3) 650,000 HEK293T were seeded in each well of a 6 well plate. […] The final concentrations in the cells were 0, 5, 10 and 20 µM (therefore the intermediate 10× concentrations were 0, 50, 100 and 200 μM. 10 μL of 10× compounds were added in each well of the 96 well plate to 0, 5, 10 and 20 µM final concentrations (with final 0.2% DMSO each). Quadruplicates were performed for each point. Cells were left for an additional 20 hours at 37° C. before the BRET2 signal reading directly after addition of Coelenterazine 400a substrate (10 µM final) to cells (Cayman Chemicals, cat #16157). BRET2 reading was carried out on an Envision instrument (2103 Multilabel Reader, PerkinElmer) with the BRET2 Dual Emission optical module (515 nm±30 and 410 nm±80; PerkinElmer).
(§4) The ability of Example compound 56 to inhibit RAS-effector PPI using the above cell-based RAS-effector BRET2 assay was investigated. […] We determined the effect of compound 56 (labelled Abd-7) on the interaction of KRAS^G12D and with PI3Kα and PI3Kγ, CRAF RAS-binding domain (RBD) and RALGDS RAS-associating domain (RA) compared with the low affinity Reference Compound Abd-2 FIG. 1a). […]

[2] = target: T2, HRASG12V interaction with PI3K, CRAF, RALGDS (Homo sapiens, UniProt P01112, G12V); assay: BRET2 cell assay, HRAS G12V-effector interaction
T2 construct: expressed in transfected cells; host or cells: HEK293T
Source text: as §1, §2, §3, §4

[3] = target: T3, KRASG12D interaction with PI3Kα, PI3Kγ, CRAF RBD, RALGDS RA (Homo sapiens, UniProt P01116, G12D); assay: BRET2 cell assay, KRAS G12D-effector interaction
T3 construct: expressed in transfected cells; host or cells: HEK293T
Source text: as §1
as §3, with “plate. 24 hours later, cells were transfected with an appropriated BRET-based RAS biosensor (i.e. RAS-effector) using Lipofectamine 2000 transfection reagent (Thermo-Fisher).” for “plate.”
as §4

Effect on BRET signal, KRAS G12D/effector interactions [3]: reduces the BRET signal
Compound: COc1nc(-c2cccc3c2OCCO3)ccc1Nc1ccc(CN(C)C)cc1 [compound 56, [6-(2,3-Dihydro-benzo[1,4]dioxin-5-yl)-2-methoxy-pyridin-3-yl]-(4-dimethylaminomethyl-phenyl)-amine]
Effect on BRET signal, NRAS Q61H/effector interactions [1]: interferes with all mutant RAS family member PPIs
Effect on BRET signal, HRAS G12V/effector interactions [2]: interferes with all mutant RAS family member PPIs

Compound: COc1cc(-c2cccc3c2OCCO3)ccc1Nc1cccc(CN(C)C)c1.O=CO [compound 72, [4-(2,3-Dihydro-benzo[1,4]dioxin-5-yl)-2-methoxy-phenyl]-(3-dimethylaminomethyl-phenyl)-amine formate salt]
Effect on BRET signal, NRAS Q61H/effector interactions ([1]; formate salt): inhibits; also recorded: disturbs the BRET2 signal in dose response manner
Effect on BRET signal, HRAS G12V/effector interactions ([2]; formate salt): inhibits; also recorded: disturbs the BRET2 signal in dose response manner
Effect on BRET signal, KRAS G12D/effector interactions ([3]; formate salt): decreases KRAS G12D/effector domain interactions in a dose-dependent manner; also recorded: dose response reduction in BRET signal
